# “And” between values parts separate entries of the source, which are not always exact repeats. Equal entries are not always repeated.
# Experiment: Population pharmacokinetics (popPK) model for orismilast
# Parameters: species or system human
# Description: All subjects were treated with orismilast as IR capsule, IR solution, IR tablet or MR tablet with available PK samples. Although the modified release tablet was the formulation selected for further studies, the popPK model was also built using the immediate release formulations (IR solution, IR tablet and IR capsule), especially to obtain stable estimates of elimination parameters (clearances) across formulations and obtain a robust model to support the simulation.
# PopPK parameters were estimated by non-linear mixed effect modelling using MONOLIX. Mixed effects models describe the influence of both fixed effects and random effects. The random effects are typically used to capture the variability which can be split in residual variability (error) and between-subject variability.
# The population model was defined by 4 components: • 1. The structural popPK model components, which defines the PK parameters and describe the plasma concentration-time profiles of orismilast. • 2. The inter-individual random effect model component, which describes the inter-individual variation (IIV) and inter-occasion variation (IOV) in PK parameters after correction for fixed effects. • 3. The residual error (or random effect) model component, which describes the underlying distribution of the error in the measured concentrations. • 4. The covariate model component, which describes the influence of fixed effects (i.e., demographic factors) on PK parameters.
# The search for the final model followed the following stepwise strategy: • 1. Selection of the simplest structural model, which predicts the plasma concentration as a function of time and dose, based on smallest objective function (OF) and by the pattern in the residual plots. The best structural model, the most appropriate.IIV and IOV models, and the residual error model, were identified. The structural model was determined using the rich Phase I data from healthy volunteers (LP0058-S01, LP0058-1005, LP0058-1114, LP0058-1362, LP0058-1324 and LP0058-1442). • 2. Preliminary visual check using predictive check approach was applied to sparse data from psoriasis patients (study LP0058-1072) to assess the predictability capacities of the structural model for patient data. • 3. Psoriasis patient data were included in the model and the model was refined or adjusted if necessary. • 4. Graphical exploration of the covariates: between individual covariates and EBE of parameter or random effects. • 5. Determination of the covariate model. • 6. Selection of significant covariates to obtain the FINAL model. • 7. Inclusion of new studies in the model (e.g. UN1500001-203 and CIB1353A101) was performed by repeating steps 2 to 6.
# The pre-specified covariates that were suspected a priori of having an influence on PK parameters, were included in the full model and the selection of the final model with relevant covariates were based on the statistical Wald test (keep covariates with p-value <0.05). The influence of body weight on PK parameters was included using fixed standard allometric scales.
# The model was evaluated using diagnostic and goodness of fit plots and validated using Visual Predictive Checks. SAS® software V9.4 and Monolix Suite version 2021R1 release were used.
# The structural model was parameterised in terms of apparent clearance (CL/F), volume of distribution of central compartment (V1/F), inter-compartmental clearance (Q/F) and volume of distribution for peripheral compartment (V2/F). The absorption was described by a 1st—order rate constant (ka1) for first absorption process, 1st—order rate constant (ka2) for second absorption process, fraction of dose absorbed through the first process (F1) and lag time (tlag2) for the start of the second phase. The relative bioavailability was also added to characterize the difference between the formulations, it was set to 1 for the IR solution, so, the other formulations were expressed relatively to the IR solution. […]
smiles,measurement,setting,value
"O=C(Cc1c(Cl)c[n+]([O-])cc1Cl)c1ccc(OC(F)F)c2c1OC1(CCS(=O)(=O)CC1)O2 [orismilast, 2-(3,5-dichloro-1-oxidopyridin-1-ium-4-yl)-1-[7-(difluoromethoxy)-1′,1′-dioxospiro[1,3-benzodioxole-2,4′-thiane]-4-yl]ethanone]",variability of the central PK parameters,,27% and 34%
same,AUClast GM ratio (popPK/NCA),"1442 - Part 1 (MR, 30 mg)",1.03
same,AUClast GM ratio (popPK/NCA),"1442 - Part 2 (Fast, 30 mg)",1.14
same,AUClast GM ratio (popPK/NCA),1442 - Part 3 (D1 = 10 mg),0.98
same,AUClast GM ratio (popPK/NCA),1442 - Part 3 (D17 = 60 mg),0.97
same,AUClast GM ratio (popPK/NCA),CIBI3S3A101 (D1 = 10 mg),0.98
same,variability of Q/F,peripheral compartment,383%
same,variability of V2/F,peripheral compartment,495%

# — patent US12409172B2, “Dosage regimen” (UNION therapeutics A/S, priority 2023, dated 2025)
